We go through 30 molecules from ChEMBL document CHEMBL1156996 (Bioorg Med Chem Lett, 2010).

Assay [1] in a line: inhibition of Cryptococcus neoformans recombinant Can2 after 15 mins by stopped-flow CO2 hydration assay.
For the next assay, the target named is T1, Carbonic anhydrase (Candida albicans (strain SC5314 / ATCC MYA-2876) (Yeast), UniProt Q5AJ71).
T1 sequence (Q5AJ71 whole entry): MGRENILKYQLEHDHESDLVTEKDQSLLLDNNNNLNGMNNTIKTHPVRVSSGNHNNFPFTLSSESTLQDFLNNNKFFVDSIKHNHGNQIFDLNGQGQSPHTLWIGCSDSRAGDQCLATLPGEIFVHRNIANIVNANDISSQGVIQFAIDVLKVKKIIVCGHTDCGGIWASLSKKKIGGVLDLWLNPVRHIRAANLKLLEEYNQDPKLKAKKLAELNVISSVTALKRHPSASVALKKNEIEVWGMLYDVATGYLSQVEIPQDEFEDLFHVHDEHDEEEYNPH
Description: inhibition of Candida albicans recombinant Nce103 after 15 mins by stopped-flow CO2 hydration assay.

A short description of assay [2]: Selectivity ratio of IC50 for human CA2 to IC50 for Cryptococcus neoformans Can2.
A short description of assay [3]: Selectivity ratio of IC50 for human CA1 to IC50 for Cryptococcus neoformans Can2.
Assay [4] has as its target T2, Carbonic anhydrase (Candida albicans (strain SC5314 / ATCC MYA-2876) (Yeast)) (UniProt Q5AJ71).
T2 sequence (whole entry): T1 sequence (Q5AJ71 whole entry)
Nature of the assay: Ratio of compound to acetazolamide activity for inhibition of Candida albicans recombinant Nce103.

A word on the Ki: it is the dissociation constant of the complex between target and ligand, obtained from inhibition or displacement. As to `Cc1cc(C)[n+](NC(=O)c2[nH]c3ccc(S(N)(=O)=O)cc3c2-c2ccccc2Cl)c(C)c1.[O-][Cl+3]([O-])([O-])[O-]`, the Ki was 15.4 nM in assay [1] and 33 nM on Carbonic anhydrase.
For the molecule `NNC(=O)c1[nH]c2ccc(S(N)(=O)=O)cc2c1-c1cccc(F)c1`, the inhibitory constant (Ki) was determined as 7.2 nM in assay [1] and 54 nM at Carbonic anhydrase.
In the case of `Cc1cc(C)[n+](NC(=O)c2[nH]c3ccc(S(N)(=O)=O)cc3c2-c2ccc(Br)cc2)c(C)c1.[O-][Cl+3]([O-])([O-])[O-]`, the Ki was found to be 10.9 nM in assay [1] and 53 nM on Carbonic anhydrase.
In the case of `Cc1ccccc1-c1c(C(=O)NN)[nH]c2ccc(S(N)(=O)=O)cc12`, the Ki worked out at 9.2 nM in assay [1] and 78 nM on Carbonic anhydrase.
For `NNC(=O)c1[nH]c2ccc(S(N)(=O)=O)cc2c1-c1ccccc1F` the same measures were 7.9 nM and 47 nM.
For `Cc1cc(C)[n+](NC(=O)c2[nH]c3ccc(S(N)(=O)=O)cc3c2-c2ccccc2)c(C)c1.[O-][Cl+3]([O-])([O-])[O-]` the same measures were 16.5 nM and 42 nM.
Regarding `COc1cccc(-c2c(C(=O)NN)[nH]c3ccc(S(N)(=O)=O)cc23)c1`, the Ki in assay [1] is 12 nM; at Carbonic anhydrase, 128 nM.
Turning to `NNC(=O)c1[nH]c2ccc(S(N)(=O)=O)cc2c1-c1cccc(Br)c1`, the results for the Ki (in assay [1]; on Carbonic anhydrase) were 93 nM and 87 nM, respectively.
For `NNC(=O)c1[nH]c2ccc(S(N)(=O)=O)cc2c1-c1ccccc1` the same measures were 72 nM and 85 nM.
For `NNC(=O)c1[nH]c2ccc(S(N)(=O)=O)cc2c1-c1ccc(Cl)cc1` the same measures were 70 nM and 55 nM.
Turning to `NNC(=O)c1[nH]c2ccc(S(N)(=O)=O)cc2c1-c1ccc(Br)cc1`, the inhibition constant Ki in assay [1] came to 118 nM; on Carbonic anhydrase, 94 nM.
Consider `Cc1cc(C)[n+](NC(=O)c2[nH]c3ccc(S(N)(=O)=O)cc3c2-c2ccc(Cl)cc2)c(C)c1.[O-][Cl+3]([O-])([O-])[O-]`, for which the Ki in assay [1] worked out at 3.1 nM; at Carbonic anhydrase, 29 nM.
For the molecule `NNC(=O)c1[nH]c2ccc(S(N)(=O)=O)cc2c1-c1ccccc1Cl`, the figures for the inhibition constant Ki (in assay [1]; at Carbonic anhydrase) were 8 nM and 45 nM, respectively. The values for the Ratio IC50 in assay [2] and in assay [3] were 4.8 and 80, respectively.
Regarding `Cc1cc(C)[n+](NC(=O)c2[nH]c3ccc(S(N)(=O)=O)cc3c2-c2cccc(F)c2)c(C)c1.[O-][Cl+3]([O-])([O-])[O-]`, the Ki in assay [1] worked out at 8.3 nM; at Carbonic anhydrase it was 24 nM.
For the molecule `NNC(=O)c1[nH]c2ccc(S(N)(=O)=O)cc2c1-c1ccc(F)cc1`, the Ki in assay [1] turned out to be 8.6 nM; on Carbonic anhydrase, 61 nM.
Take `Cc1ccc(-c2c(C(=O)NN)[nH]c3ccc(S(N)(=O)=O)cc23)cc1`: the Ki came out at 10.5 nM in assay [1] and 52 nM on Carbonic anhydrase.
With `Cc1cc(C)[n+](NC(=O)c2[nH]c3ccc(S(N)(=O)=O)cc3c2-c2ccc(F)cc2)c(C)c1.[O-][Cl+3]([O-])([O-])[O-]`, the Ki in assay [1] turned out to be 8.7 nM; at Carbonic anhydrase, 21 nM.
Take `NNC(=O)c1[nH]c2ccc(S(N)(=O)=O)cc2c1-c1cccc(Cl)c1`: the figures for the Ki (in assay [1]; at Carbonic anhydrase) were 7.4 nM and 52 nM, respectively.
For `Cc1cc(C)[n+](NC(=O)c2[nH]c3ccc(S(N)(=O)=O)cc3c2-c2cccc(Br)c2)c(C)c1.[O-][Cl+3]([O-])([O-])[O-]` the same measures were 14.3 nM and 48 nM.
For `Cc1cccc(-c2c(C(=O)N[n+]3c(C)cc(C)cc3C)[nH]c3ccc(S(N)(=O)=O)cc23)c1.[O-][Cl+3]([O-])([O-])[O-]` the same measures were 6.1 nM and 64 nM.
As to `Cc1cc(C)[n+](NC(=O)c2[nH]c3ccc(S(N)(=O)=O)cc3c2-c2cccc(Cl)c2)c(C)c1.[O-][Cl+3]([O-])([O-])[O-]`, the inhibition constant Ki in assay [1] was 4.4 nM; on Carbonic anhydrase it was 31 nM.
For `Cc1ccc(-c2c(C(=O)N[n+]3c(C)cc(C)cc3C)[nH]c3ccc(S(N)(=O)=O)cc23)cc1.[O-][Cl+3]([O-])([O-])[O-]` the same measures were 5.9 nM and 41 nM.
With `Cc1cc(C)[n+](NC(=O)c2[nH]c3ccc(S(N)(=O)=O)cc3c2-c2c(F)c(F)c(F)c(F)c2F)c(C)c1.[O-][Cl+3]([O-])([O-])[O-]`, the results for the Ki (in assay [1]; at Carbonic anhydrase) were 60.1 nM and 5.1 nM, respectively.
With `Cc1cc(C)[n+](NC(=O)c2[nH]c3ccc(S(N)(=O)=O)cc3c2-c2ccccc2C)c(C)c1.[O-][Cl+3]([O-])([O-])[O-]`, the Ki in assay [1] is 6.5 nM; on Carbonic anhydrase, 62 nM.
For `NNC(=O)c1[nH]c2ccc(S(N)(=O)=O)cc2c1-c1ccccc1Br` the same measures were 62 nM and 81 nM.
For `COc1cccc(-c2c(C(=O)N[n+]3c(C)cc(C)cc3C)[nH]c3ccc(S(N)(=O)=O)cc23)c1.[O-][Cl+3]([O-])([O-])[O-]` the same measures were 8.3 nM and 119 nM.
Regarding `Cc1cc(C)[n+](NC(=O)c2[nH]c3ccc(S(N)(=O)=O)cc3c2-c2ccccc2Br)c(C)c1.[O-][Cl+3]([O-])([O-])[O-]`, the figures for the inhibitory constant (Ki) (in assay [1]; at Carbonic anhydrase) were 12.1 nM and 45 nM, respectively.
For `Cc1cc(C)[n+](NC(=O)c2[nH]c3ccc(S(N)(=O)=O)cc3c2-c2ccccc2F)c(C)c1.[O-][Cl+3]([O-])([O-])[O-]` the same measures were 16.2 nM and 19 nM.
As to `NNC(=O)c1[nH]c2ccc(S(N)(=O)=O)cc2c1-c1c(F)c(F)c(F)c(F)c1F`, the Ki in assay [1] came to 103 nM. The Ratio in assay [4] came out at 17.6.
`Cc1cccc(-c2c(C(=O)NN)[nH]c3ccc(S(N)(=O)=O)cc23)c1`: the Ki came out at 9.1 nM in assay [1] and 43 nM at Carbonic anhydrase. The Ratio IC50 was determined as 5.1 in assay [2] and 80.2 in assay [3].
